Results reported in patent publication US20240401144A2, “PRIMER-PROBE COMPOSITION, KIT, AND DETECTION METHOD” (ASCENTAWITS PHARMACEUTICALS, LTD., priority 2021, published 2024).

Assays:
[1] = system: hepatocellular carcinoma cell lines; test: Ex vivo proliferation assay, group of hepatocellular carcinoma cell lines (summary); type: cell-based, human
Method: (§1) Exponentially growing cells were inoculated. After 24 h, the test compound OBI-3424 was added. After addition of the test compound OBI-3424, plates were incubated in a standard tissue incubator at 37° C. for the indicated hours. At the end of the experiment, viable cells were detected using the CellTiter Glo (CTG) assay kit or AlamarBlue. Drug concentrations (IC50) resulting in 50% growth inhibition relative to untreated control were calculated using XLfit (IDBS, Boston, MA) or Prism 6 (GraphPad, San Diego, CA).
After exposing the hepatocellular carcinoma cell lines to compound OBI-3424 for 96 h and exposing the NSCLC cell lines to compound OBI-3424 for 72 h, the IC50 value was determined by ex vivo proliferation assay, and the expression of AKR1C3 protein in hepatocellular carcinoma cell lines was determined by Western blotting (tubulin was used as loading control). The expression data of AKR1C3 RNA in the hepatocellular carcinoma cell lines and in the NSCLC cell lines were from CrownBio database (https://db.crownbio.com/Crownbio/OncoExpress_Login.aspx).
On the other hand, cells expressing low AKR1C3 were less sensitive to OBI-3424, where IC50 values were higher than 1000 nM.

[2] = system: TALL-1 hematological cancer cell line; test: Ex vivo proliferation assay, hematological cancer cell lines, 72 h; type: cell-based; settings: Homo sapiens; Table 6: TALL-1, 72 h of exposure
Method: as §1
(§2) After exposing the hematological cancer cell lines to compound OBI-3424 for 72 h, the IC50 value was determined by ex vivo proliferation assay. The expression data of AKR1C3 RNA in hematological cancer cell lines was from CrownBio database (https://db.crownbio.com/Crownbio/OncoExpress_Login.aspx).

[3] = system: CCRF-CEM hematological cancer cell line; test: as above; type: cell-based; settings: Homo sapiens; Table 6: CCRF-CEM, 72 h of exposure
Method: as §1, §2

[4] = system: KG-1 hematological cancer cell line; test: as above; type: cell-based; settings: Homo sapiens; Table 6: KG-1, 72 h of exposure
Method: as §1, §2

[5] = system: HEL hematological cancer cell line; test: as above; type: cell-based; settings: Homo sapiens; Table 6: HEL, 72 h of exposure
Method: as §1, §2

[6] = system: Kasumi-1 hematological cancer cell line; test: as above; type: cell-based; settings: Homo sapiens; Table 6: Kasumi-1, 72 h of exposure
Method: as §1, §2

[7] = system: Jurkat hematological cancer cell line; test: as above; type: cell-based; settings: Homo sapiens; Table 6: Jurkat, 72 h of exposure
Method: as §1, §2

[8] = system: P31/FUJ hematological cancer cell line; test: as above; type: cell-based; settings: Homo sapiens; Table 6: P31/FUJ, 72 h of exposure
Method: as §1, §2

[9] = system: SUP-T1 hematological cancer cell line; test: as above; type: cell-based; settings: Homo sapiens; Table 6: SUP-T1, 72 h of exposure
Method: as §1, §2

[10] = system: TF-1 hematological cancer cell line; test: as above; type: cell-based; settings: Homo sapiens; Table 6: TF-1, 72 h of exposure
Method: as §1, §2

[11] = system: PF-382 hematological cancer cell line; test: as above; type: cell-based; settings: Homo sapiens; Table 6: PF-382, 72 h of exposure
Method: as §1, §2

C[C@H](OP(=O)(N1CC1)N1CC1)c1ccc([N+](=O)[O-])c(Oc2cccc(C(=O)N(C)C)c2)c1 [OBI-3424]
IC50 ([1]; Homo sapiens, cells expressing low AKR1C3): > 1 µM
IC50 values ([1]; hepatocellular carcinoma cell lines with high AKR1C3 expression at both protein and RNA levels): low nanomolar range
IC50 [2]: 0.024 µM
IC50 [3]: 0.0017 µM
IC50 [4]: 0.153 µM
IC50 [5]: 0.224 µM
IC50 [6]: ≥ 1 µM
IC50 [7]: 0.0511 µM
IC50 [8]: ≥ 1 µM
IC50 [9]: 0.0039 µM
IC50 [10]: 0.0168 µM
IC50 [11]: 0.006 µM
